Patent EP3666770A1, “NOVEL HETEROCYCLIC COMPOUNDS AS CDK8/19 INHIBITORS” (Joint Stock Company "Biocad", priority 2017, dated 2019)
Where two headings read alike, the source gives them in different places.

Tests used:
[1] = Chemical stability in simulated gastric fluid (SGF); format: physicochemical; settings: SGF without enzymes, pH=1,4; 10 µm; 2 hours at 37°C; substance amount in % after thermostatting
In short: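 Compounds at […] (diluted from DMSO stock) were incubated for 2 h at 37 °C in enzyme-free simulated gastric fluid, pH=1,4. HPLC peak areas before and after incubation gave the % of compound remaining.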

MV4-11 = experiment: Cell-based antiproliferative test (AlamarBlue), MV4-11; settings: 120 h incubation, average values of several tests, read-out: MV-4-11 IC50, mkM
KG-1 = experiment: Cell-based antiproliferative test (AlamarBlue), KG-1; settings: 120 h incubation, average values of several tests, read-out: KG-1 IC50, mkM
Method: (§1) Antiproliferative activity of CDK8 inhibitors according to the present invention was measured in a cell-based test on continuous cell cultures MV4-11 (biphenotypic myelomonocytic leukemia, ATCC® CRL-9591™), KG-1 (acute myeloid leukemia, ATCC® CCL-246™), HL-60 (acute promyelocytic leukemia, ATCC® CCL-240™) using a vital stain AlamarBlue (ThermoFisher, #DAL1100). The cells were grown in RPMI-1640 (PanEco, #C330p) medium with addition of 10% FBS (Gibco, #16140-071); washed and resuspended in culture medium with 10% FBS (Gibco, #16140-071) in 96-well culture plates (Corning, #3599) with ≈ 10 ×10^3 cells in […] of medium per well. The compounds in question were dissolved in DMSO and diluted with a medium with 10% FBS (Gibco, #16140-071) to a final concentration ranging form 0 to 100 µM. […] of diluted compounds were then added to each well (final DMSO concentration was less than 1%) and incubated under 5% CO2 atmosphere at 37°C for 120 h. After incubating, 15 µL of AlamarBlue (ThermoFisher, #DAL1100) reagent was added per well, contents of plates were mixed in an orbital shaker (Biosan, Latvia) and further incubated for 3-5 h at 37°C under 5% CO2 atmosphere. Number of living cells was estimated using a microplate spectrophotometer (Tecan Infinite M200Pro, Switzerland) measuring fluorescent signal at the excitation wavelength (λEx) of 540 nm and emission wavelength (λEm) of 590 nm.
(§2) IC50 was calculated using Magellan 7.2 software (Tecan, Switzerland) approximating experimental points by four-parameter logistic model with the optimization by Levenberg-Marquardt (table 7, table 7).

[2] = Chemical stability in human blood plasma; format: in vitro ADME; settings: pooled human blood plasma; 10 µM; 4 hours at 37°C; substance amount in % after thermostatting
In short: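 Pooled plasma from ten healthy human donors; compound diluted from 10 mM DMSO stock to 10 µm final and incubated 4 h at 37°C. After acetonitrile protein precipitation, HPLC peak areas before and after incubation were compared; value is % compound remaining.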

[3] = General cytotoxicity test on HepG2 cells; format: cell-based; settings: human, HepG2 cells; 72 h incubation; 200 to 0.78 µM; average values of several tests; read-out: Hep-G2 CC50, mkM
Method: Cell viability was assessed using the above method. Table 6. […] The results are presented as average values of activity obtained in several tests.

[4] = Enzyme stability in human liver microsomes; format: in vitro ADME; settings: pH 7.4; 0,5 mg/mL pooled human liver microsomes; 10 µM compound; 37°C; pH=7,4
In short: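 Pooled human liver microsomes (0,5 mg/mL) incubated at 37 °C with 10 µM compound, 2 mM β-NAD and 4 mM MgCl2 in 0,1 M sodium phosphate, pH 7,4. Samples quenched with acetonitrile and analysed by HPLC. Elimination rate constant taken from the slope of log peak area versus time, giving t1/2 and CLint.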

[5] = Permeability through Caco-2 cell monolayer; format: in vitro ADME; settings: human, Caco-2; for Papp A→B at 2 h, 10 µM: A->B transfer, pH 6.5 -> pH 7.4, 2 hours at 37 °C; for efflux ratio at 2 h, 10 µM: efflux = Papp B-A / Papp A-B
In short: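 Caco-2 monolayers grown for 21 days (Lucifer Yellow integrity check) received 10 µM compound apically at pH 6.5 (A→B) or basolaterally at pH 7.4 with 1% BSA on the basolateral side (B→A). After 2 h at 37 °C, both chambers were quantified by HPLC. Efflux ratio = Papp B→A / Papp A→B.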

HL-60 = experiment: Cell-based antiproliferative test (AlamarBlue), HL-60; settings: Homo sapiens, HL-60, 120 h, 120 h incubation; average values of several tests; read-out: HL-60 IC50, mkM
Method: as §1, §2

[6] = Enzyme stability in human liver S9 fractions; format: in vitro ADME; settings: 0,5 mg/mL pooled human liver S9 fractions, 10 µM compound, 37°C, pH=7,4; for microsomal CLint at 10 µM: pH 7.4
Method: Measuring of candidates' enzyme stability enabled estimation of the stability of the present compounds towards the action of enzymes in human liver S9 fractions.
Enzyme degradation rate was measured by incubating the reaction mixture in a dry block thermostat at 37°C, said reaction mixture comprising 0,5 mg/mL of pooled human liver S9 fractions (XenoTech, USA, cat#H0610), 10 µM compound, 2 mM β-nicotinamide adenine dinucleotide (Carbosynth, UK, cat#NN10871) and 4 mM magnesium chloride in 0,1 M sodium-phosphate buffer, pH=7,4. The reaction was quenched with acetonitrile (100 µL of acetonitrile / 100 µL of the reaction mixture). After quenching, the samples were centrifuged at 10000 rpm for 10 minutes. Supernatant fluid was tested by chromatographic technique using Agilent1200 (Agilent, USA). Chromatographic analysis was performed in a gradient elution regime with a flow rate of 1 mL/min. A graph of the logarithm of substance's peak area as a function of time was made.

| SMILES | Stability in SGF, % [1] [%] | IC50 (MV4-11; Homo sapiens, MV4-11, 120 h) [nM] | IC50 (KG-1; Homo sapiens, KG-1) [nM] | Stability in blood plasma, % [2] [%] | CC50 at 72 h [3] [nM] | microsomal CLint at 10 µM [4] [µL/min/mg] | Papp A→B at 2 h, 10 µM [5] [×10⁻⁶ cm/s] | efflux ratio at 2 h, 10 µM [5] | IC50 (HL-60) [nM] | microsomal CLint at 10 µM [6] [µL/min/mg] | Stability in S9, Clint [6] [µL/min/mg] | IC50 (MV4-11) [nM] | IC50 (KG-1) [nM] |
| --- | --- | --- | --- | --- | --- | --- | --- | --- | --- | --- | --- | --- | --- |
| Cn1cc(-c2ccc(-c3cncc4ncc(C(=O)N5CCC5)cc34)cc2)cn1 [CDK8-3-14, Azetidin-1-yl-(5-(4-(1-methyl-1H-pyrazol-4-yl)phenyl)-1,7-naphthyridin-3-yl) methanone] | 100 | 200 | 50 | 100 | > 100000 | 13.6 | 39.8 | 1.35 | 69800 | – | – | – | – |
| COCCNC(=O)c1cnc2cncc(-c3ccc(-c4cnn(C)c4)cc3)c2c1 [CDK8-3-18, N-(2-Methoxyethyl)-5-(4-(1-methyl-1H-pyrazol-4-yl)phenyl)-1,7-naphthyridine-3-carboxamide] | 100 | 190 | 80 | 100 | > 200000 | 10.4 | 46.9 | 0.9 | 35000 | – | – | – | – |
| CO[C@@H]1CCN(C(=O)c2cnc3cncc(-c4ccc(-c5cnn(C)c5)cc4)c3c2)C1 [CDK8-3-19, (R)-(3-Methoxypyrrolidin-1-yl)(5-(4-(1-methyl-1H-pyrazol-4-yl)phenyl)-1,7-naphthyridin-3-yl)methanone] | – | 912 | – | – | > 100000 | – | – | – | – | 2.9 | – | – | – |
| CO[C@@H]1CCCN(C(=O)c2cnc3cncc(-c4ccc(-c5cnn(C)c5)cc4)c3c2)C1 [CDK8-3-21, (R)-(3-Methoxypiperidin-1-yl)(5-(4-(1-methyl-1H-pyrazol-4-yl)phenyl)-1,7-naphthyridin-3-yl)methanone] | – | 764 | – | – | > 100000 | – | – | – | – | 12.9 | – | – | – |
| CN(C)C(=O)c1cnc2cncc(-c3ccc(-c4cnn(C)c4)cc3)c2c1 [CDK8-3-22, N,N-Methyl-5-(4-(1-methyl-1H-pyrazol-4-yl)phenyl)-1,7-naphthyridine-3-carboxamide] | – | 432 | – | – | > 100000 | – | – | – | – | 3 | – | – | – |
| CCN(CC)C(=O)c1cnc2cncc(-c3ccc(-c4cnn(C)c4)cc3)c2c1 [CDK8-3-23, N,N-Diethyl-5-(4-(1-methyl-1H-pyrazol-4-yl)phenyl)-1,7-naphthyridine-3-carboxamide] | – | 413 | – | – | > 100000 | – | – | – | – | 9.2 | – | – | – |
| COCCNC(=O)c1cnc2c(N)ncc(-c3ccc(-c4cnn(C)c4)cc3)c2c1 [CDK8-3-24, 8-Amino-N-(2-methoxyethyl)-5-(4-(1-methyl-1H-pyrazol-4-yl)phenyl)-1,7-naphthyridine-3-carboxamide] | – | 99 | – | 89.7 | > 200000 | – | 17 | 1.1 | – | 4.6 | – | – | – |
| COCCN(C)C(=O)c1cnc2cncc(-c3ccc(-c4cnn(C)c4)cc3)c2c1 [CDK8-3-25, N-(2-Methoxyethyl)-N-methyl-5-(4-(1-methyl-1H-pyrazol-4-yl)phenyl)-1,7-naphthyridine-3-carboxamide] | – | 134 | – | – | > 100000 | – | 29.3 | 0.6 | – | 3.3 | – | – | – |
| Cn1cc(-c2ccc(-c3cnc(N)c4ncc(C(=O)N5CCOCC5)cc34)cc2)cn1 [CDK8-3-27, (8-Amino-5-(4-(1-methyl-1H-pyrazol-4-yl)phenyl)-1,7-naphthyridin-3-yl) (morpholino)methanone] | – | 66 | – | 94.2 | 19400 | – | 22.6 | 0.9 | – | 1.55 | – | – | – |
| Cn1cc(-c2ccc(-c3cncc4ncc(C(=O)NCC5CC5)cc34)cc2)cn1 [CDK8-3-39] | – | – | – | – | – | – | – | – | – | – | 10.3 | 55 | 5 |
| Cn1cc(-c2ccc(-c3cnc(N)c4ncc(C(=O)NCC5CC5)cc34)cc2)cn1 [CDK8-3-40, 8-Amino-N-(cyclopropylmethyl)-5-(4-(1-methyl-1H-pyrazol-4-yl)phenyl)-1,7-naphthyridine-3-carboxamide] | – | 9 | – | – | 200000 | – | – | – | – | 2.95 | – | – | – |
| COc1cc(-c2cnc3[nH]cc(C(=O)c4cccnc4)c3c2)ccc1N1CCOCC1 [CDK8-4-27, (5-(3-Methoxy-4-morpholinophenyl)-1H-pyrrolo[2,3-b]pyridin-3-yl) (pyridin-3-yl) methanone] | 100 | 50 | 5210 | 100 | > 100000 | 7.2 | 84.6 | 0.25 | > 100000 | – | – | – | – |
| COCCNC(=O)c1ccc2nccc(-c3ccc(-c4cnn(C)c4)cc3)c2c1 [CDK8-6-14, N-(2-Methoxyethyl)-4-(4-(1-methyl-1H-pyrazol-4-yl)phenyl)quinoline-6-carboxamide] | 100 | 11700 | 9600 | 100 | > 50000 | 11.8 | 64.1 | 0.44 | 66400 | – | – | – | – |
